For series [1], the system named is Candida albicans ATCC 10231. In words: Anti-bacterial activity, minimum inhibitory concentration by agar dilution method. In kind it is cell-based. The following applies: ATCC10231, pH=7.0. On the procedure: (§1) Minimum inhibitory concentration (μg/ml) was measured by the agar dilution method using a medium (pH=7.0) which was prepared by dissolving Bactotryptone medium (3 g; commercial product of Difco, U.S.A.), meat extract (3 g), yeast extract (1 g), glucose (1 g) and agar (16 g) in water (1 l).
(In agar dilution, organisms are placed on agar that contains the substance at set levels.)

For series [2], the system named is Klebsiella pneumonia ATCC 10031. Described as above. The series is classed as cell-based. The following applies: Klebsiella pneumoniae, ATCC10031, pH=7.0. On the procedure:
as §1

Series [3] has as its system Shigella sonnei ATCC 9290. Described as above. The following applies: ATCC9290, pH=7.0. The series is classed as cell-based. On the procedure:
as §1

Series [4] deals with Salmonella typhi ATCC 9992. The description is as above. The series is classed as cell-based. As to conditions: Salmonella enterica, read-out: Minimum inhibitory concentration. The procedure: as §1
Series [5] concerns Staphylococcus aureus ATCC 6538P. Described as above. In kind it is cell-based. The following applies: ATCC6538P, pH=7.0. On the procedure:
as §1

Series [6] relates to Enterococcus faecium ATCC 10541. The description is as above. In kind it is cell-based. As to conditions: ATCC10541, pH=7.0. The procedure: as §1
The subject of series [7] is Bacillus subtilis No. 10707. Described as above. In kind it is cell-based. As to conditions: pH=7.0. On the procedure:
as §1

In series [8] the test system is Pseudomonas aeruginosa Bin H No. 1. The description is as above. The following applies: pH=7.0. The series is classed as cell-based. The procedure:
as §1

In another series the test system is Escherichia coli ATCC 26. The series is described as above. In kind it is cell-based. As to conditions: ATCC26, pH=7.0. The procedure: as §1
A further series relates to MCF7 cells (ATCC HTB22). In words: Anti-tumour activity, MCF7 cell growth inhibition (neutral red). In kind it is cell-based. As to conditions: Homo sapiens, 72 hours, 37° C., absorptivity at 550 nm. On the procedure: MCF7 cells (ATCC HTB22) was add to RPMI-1640 medium (commercial product of Gibco, U.S.A.) containing 10 % fetal calf serum, insulin (10 μg/ml) and estradiol (10^-8 M) (hereinafter referred to as medium A) to prepare a cell suspension containing 4.5×10^4 cell/ml.
On each occasion, 0.1 ml of the suspension was poured into each well of a 96 well microtitre plate and incubated at a temperature of 37° C. for 20 hours in a carbon dioxide incubator. Then a test compound (each 0.05 ml) was added to each well, followed by incubation similarly for 72 hours. After removal of the supernatant, another medium (0.1 ml) containing medium A and 0.02% neutral red was added to the material for incubating similarly for one hour to dye the cells. The supernatant was removed, and the residue was washed once with physiological Saline. Then the dyestuff was removed by using an aqueous solution of ethanol (30%) containing 0.001N hydrochloric acid.
The absorptivity at 550 nm of the material was measured by the use of a microplate reader. The absorptivity of the treated cells was compared with the absorptivity of untreated cells to measure the IC50 value viz. the concentration of the test compound required to inhibit the growth of the cells by 50%.

Series [9] in a line: Solubility in various solvents. In kind it is physicochemical. The following applies: for Solubility in various solvents (soluble): organic solvents; for Solubility in various solvents (insoluble): water, n-hexane where named.

Converted amounts (≈) assume the structure as drawn.

In general, IC50 refers to the concentration needed to halve the response being measured. Lower therefore signals greater potency in that assay.

Consider `CCCCC(C)/C=C(C)/C=C(\C)C(=O)NC1=CC(O)(/C=C/C=C/C=C/C(=O)NC2=C(O)CCC2=O)C2OC2C1=O` (stereo not shown) [Manumycin, reference compound], for which the MIC in series [1] is 21 µg/mL (≈ 38.1 µM); in series [2], above 100 µg/mL; in series [3], above 100 µg/mL; in series [4], above 100 µg/mL; in series [5], 1.3 µg/mL (≈ 2.36 µM); in [6], 2.6 µg/mL (≈ 4.72 µM). For the same compound, the MIC in series [7] is 0.3 µg/mL (≈ 0.545 µM); in series [8], above 100 µg/mL; with Escherichia coli ATCC 26, above 100 µg/mL. For the same compound, the IC50 in the series with MCF7 cells (ATCC HTB22) came out at 8.3 µg/mL (≈ 15.1 µM).

For the compound `CCCCC(C)/C=C(\C)C(=O)NC1=CC(=O)C2OC2C1=O` (stereo not shown) [UCF1-AX], the “Solubility in various solvents (soluble)” value in series [9] is “Soluble in chloroform, methanol and diethyl ether”. The “Solubility in various solvents (insoluble)” value (“Solubility … (insoluble)” below) in series [9] is “Insoluble in water”. Moreover, the MIC in [1] is 10 µg/mL (≈ 34.3 µM); in series [2], 21 µg/mL (≈ 72.1 µM); in series [3] it was 10 µg/mL (≈ 34.3 µM); in [4], 21 µg/mL (≈ 72.1 µM); in series [5] it was 10 µg/mL (≈ 34.3 µM); in [6], 10 µg/mL (≈ 34.3 µM). Moreover, the MIC is 1.3 µg/mL (≈ 4.46 µM) in series [7], 83 µg/mL (≈ 285 µM) in series [8] and 21 µg/mL (≈ 72.1 µM) with Escherichia coli ATCC 26. Moreover, in the series on MCF7 cells (ATCC HTB22), the IC50 was 18.9 µg/mL (≈ 64.9 µM).

As to `CCCCC(C)/C=C(\C)C(=O)NC1=CC(O)(/C=C/C=C/C=C/C(=O)NC2=C(O)CCC2=O)C2OC2C1=O` (stereo not shown) [UCF1-A], in series [9], the “Solubility in various solvents (soluble)” value was “Soluble in chloroform, dimethylsulfoxide, ethyl acetate, methanol and acetone”. The “Solubility … (insoluble)” value in series [9] is “Insoluble in n-hexane and water”. Further, the MIC in series [1] was above 100 µg/mL; in [2], above 100 µg/mL; in series [3], above 100 µg/mL; in series [4], above 100 µg/mL; in [5], 2.6 µg/mL (≈ 5.09 µM); in series [6], 10 µg/mL (≈ 19.6 µM). Further, the MIC was 10 µg/mL (≈ 19.6 µM) in series [7], above 100 µg/mL in [8] and above 100 µg/mL with Escherichia coli ATCC 26. Moreover, in the series with MCF7 cells (ATCC HTB22), the IC50 amounted to 12.5 µg/mL (≈ 24.5 µM).

In the case of `CCCCC(C)/C=C(C)/C=C/C(=O)NC1=CC(=O)C2OC2C1=O` (stereo not shown) [UCF1-BX], the “Solubility in various solvents (soluble)” value in series [9] is “Soluble in chloroform, methanol and diethyl ether”. Moreover, the “Solubility … (insoluble)” value in series [9] is reported as “Insoluble in water”. The MIC in [1] was 42 µg/mL (≈ 132 µM); in series [2], above 100 µg/mL; in [3] it was above 100 µg/mL; in series [4], above 100 µg/mL; in series [5], 8.3 µg/mL (≈ 26.2 µM); in series [6] it was 0.65 µg/mL (≈ 2.05 µM). The MIC was 0.16 µg/mL (≈ 0.504 µM) in series [7], 83 µg/mL (≈ 262 µM) in series [8] and above 100 µg/mL against Escherichia coli ATCC 26. This compound also yielded a half-maximal inhibitory concentration (IC50) in the series on MCF7 cells (ATCC HTB22) of 7.5 µg/mL (≈ 23.6 µM).

On to `CCCCC(C)/C=C(C)/C=C/C(=O)NC1=CC(O)(/C=C/C=C/C=C/C(=O)NC2=C(O)CCC2=O)C2OC2C1=O` (stereo not shown) [UCF1-B], for which the “Solubility in various solvents (soluble)” value in series [9] is “Soluble in chloroform, dimethylsulfoxide, ethyl acetate, methanol and acetone”. Also, the “Solubility … (insoluble)” value in series [9] is “Insoluble in n-hexane and water”. Further, the MIC in series [1] is above 100 µg/mL; in series [2], above 100 µg/mL; in series [3] it was above 100 µg/mL; in series [4], above 100 µg/mL; in series [5], 2.6 µg/mL (≈ 4.85 µM); in [6] it was 10 µg/mL (≈ 18.6 µM). Moreover, the MIC is 1.3 µg/mL (≈ 2.42 µM) in [7], above 100 µg/mL in series [8] and above 100 µg/mL against Escherichia coli ATCC 26. The compound further came in with an IC50 in the series with MCF7 cells (ATCC HTB22) of 7.3 µg/mL (≈ 13.6 µM).
